Laboratory results reported in patent US10947274B1 (priority 2018, dated 2021).
Where a SMILES comes first, the peptide text is derived from it. Bridges are numbered along the chain shown (N, C = ends). [ ]: non-standard residue; d: D form. Sec = N[C@@H](C[SeH])C(=O)O

Legend:
[1] = target: rat α9α10 nAChR (Rattus norvegicus, UniProt P43144+Q9JLB5); assay: cell-based
[2] = target: α3β4 nAChR (Rattus norvegicus, UniProt P04757+P12392); conditions: cited from earlier work
α3β4 nAChR, sequence (P04757 26-499 limits assumed): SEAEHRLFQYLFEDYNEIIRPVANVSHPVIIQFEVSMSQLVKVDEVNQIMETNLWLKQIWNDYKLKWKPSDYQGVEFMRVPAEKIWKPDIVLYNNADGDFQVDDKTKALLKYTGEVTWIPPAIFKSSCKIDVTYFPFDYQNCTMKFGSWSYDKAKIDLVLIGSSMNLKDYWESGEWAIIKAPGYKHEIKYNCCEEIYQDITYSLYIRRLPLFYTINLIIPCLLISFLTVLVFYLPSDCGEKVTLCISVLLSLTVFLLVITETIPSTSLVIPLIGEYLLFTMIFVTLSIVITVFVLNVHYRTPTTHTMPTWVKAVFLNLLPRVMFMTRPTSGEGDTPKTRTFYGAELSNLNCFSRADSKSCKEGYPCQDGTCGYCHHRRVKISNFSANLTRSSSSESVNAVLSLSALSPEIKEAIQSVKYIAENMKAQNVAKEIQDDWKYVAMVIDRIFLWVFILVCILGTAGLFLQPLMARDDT
α3β4 nAChR, sequence (P12392 21-495 limits assumed): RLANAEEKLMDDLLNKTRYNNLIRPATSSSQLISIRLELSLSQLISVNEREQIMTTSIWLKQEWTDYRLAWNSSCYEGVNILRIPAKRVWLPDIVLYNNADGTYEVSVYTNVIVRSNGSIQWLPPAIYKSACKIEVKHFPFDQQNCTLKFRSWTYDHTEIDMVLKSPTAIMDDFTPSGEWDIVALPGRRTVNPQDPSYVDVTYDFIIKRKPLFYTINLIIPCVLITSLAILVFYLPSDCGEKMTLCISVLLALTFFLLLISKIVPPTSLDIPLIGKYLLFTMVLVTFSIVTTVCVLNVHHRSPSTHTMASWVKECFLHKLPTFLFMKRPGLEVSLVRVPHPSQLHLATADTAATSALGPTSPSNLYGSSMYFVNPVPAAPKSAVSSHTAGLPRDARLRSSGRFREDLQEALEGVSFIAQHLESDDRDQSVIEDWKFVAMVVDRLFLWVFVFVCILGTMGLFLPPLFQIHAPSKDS

rat α9α10 nAChR, sequence (P43144 26-479 limits assumed): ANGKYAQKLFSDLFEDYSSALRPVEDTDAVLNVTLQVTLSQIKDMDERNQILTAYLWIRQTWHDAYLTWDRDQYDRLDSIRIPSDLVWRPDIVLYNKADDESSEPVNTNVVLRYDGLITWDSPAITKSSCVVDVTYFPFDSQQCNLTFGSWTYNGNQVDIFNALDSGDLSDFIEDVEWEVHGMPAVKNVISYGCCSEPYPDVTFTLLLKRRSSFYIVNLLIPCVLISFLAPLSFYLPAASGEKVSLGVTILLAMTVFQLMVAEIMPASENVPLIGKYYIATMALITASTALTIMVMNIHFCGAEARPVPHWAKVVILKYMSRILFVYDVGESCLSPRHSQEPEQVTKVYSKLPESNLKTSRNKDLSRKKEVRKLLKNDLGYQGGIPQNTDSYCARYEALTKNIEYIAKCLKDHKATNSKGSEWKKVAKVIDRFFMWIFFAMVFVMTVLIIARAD
rat α9α10 nAChR, sequence (Q9JLB5 25-447 limits assumed): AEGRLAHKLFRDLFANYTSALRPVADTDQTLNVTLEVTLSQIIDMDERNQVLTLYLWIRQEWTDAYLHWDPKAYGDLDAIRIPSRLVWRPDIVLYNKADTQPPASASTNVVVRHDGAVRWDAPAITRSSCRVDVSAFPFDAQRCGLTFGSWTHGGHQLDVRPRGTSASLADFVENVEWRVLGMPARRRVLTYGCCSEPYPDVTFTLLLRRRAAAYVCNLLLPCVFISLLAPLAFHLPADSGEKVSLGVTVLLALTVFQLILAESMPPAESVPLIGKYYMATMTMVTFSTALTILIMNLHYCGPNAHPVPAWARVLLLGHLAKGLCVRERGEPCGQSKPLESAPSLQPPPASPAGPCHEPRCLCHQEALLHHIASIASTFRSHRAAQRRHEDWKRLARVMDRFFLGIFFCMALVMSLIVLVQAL

Compound | % block [1] | IC50 [1] [µM] | IC50 [2] [µM]
N=C(N)NCCC[C@H](NC(=O)[C@@H]1C[Se][Se]C[C@@H]2NC(=O)[C@@H](NC(=O)CN)CSSC[C@H](NC(=O)[C@H](CCCNC(=N)N)NC(=O)[C@@H]3CCCN3C(=O)[C@H](CC(=O)O)NC(=O)[C@H](CO)NC2=O)C(=O)N[C@@H](CCCNC(=N)N)C(=O)N[C@@H](Cc2ccc(O)cc2)C(=O)N[C@@H](CCCNC(=N)N)C(=O)N1)C(=O)O [[C3 Sec;C12Sec] RgIA] (H-GC[Sec]SDPRCRYR[Sec]R-OH; disulfide 2-8; diselenide 3-12) | <10 nM (81.9 ± 1.8% block at 10 nM) | < 0.01 | –
α-conotoxin AuIB | – | – | 3.1 ± 1
